Reference: patent US12195427B2, “MASP-2 inhibitors and methods of use” (priority 2018, dated 2025)

How the values were obtained:
[1] = molecular target: human α-thrombin (Homo sapiens (Human), UniProt P00734); experiment: Enzymatic Assay for Thrombin (Boc-VPR-AMC); format: biochemical
[2] = molecular target: MASP-2 (CCP1-CCP2-SP) (Homo sapiens (Human), UniProt O00187); experiment: Enzymatic Assay for MASP-2 (fluorogenic substrate); format: biochemical
[3] = molecular target: MASP-2 CCP2-SP (Homo sapiens (Human), UniProt O00187); experiment: MASP-2 co-crystallization, X-ray crystallography and structure analysis (H-bonds, van der Waals contacts); parameters: van der Waals contact distance, MASP-2 HIS 483 atom CD2 / van der Waals contact distance, MASP-2 HIS 483 atom NE2 / van der Waals contact distance, SER 654 C to compound atom / van der Waals contact distance, SER 654 O to compound atom / van der Waals contact distance, TRP 655 C to compound atom / van der Waals contact distance, MASP-2 GLY 528 atom CA / van der Waals contact distance TRP 655 atom CZ3 / van der Waals contact distance TRP 655 atom N / van der Waals contact distance TRP 655 atom CE3 / van der Waals contact distance GLY 656 atom C / van der Waals contact distance GLY 656 atom CA / van der Waals contact distance GLY 656 atom O / van der Waals contact distance, MASP-2 TYR 607 atom CD1 / van der Waals contact distance, MASP-2 PRO 606 atom O / d(C3,CA1) / d(CA1,N1)2 / d(H4,O1) / d(H4,O2) / d(O1,O2) / d(CA1,O2) / d(CA6,O1) / d(CA6,O2) / d(CA1,C5) / d(O2,H3) / d(N2,C2) / d(CA5,N2) / d(N2,C4) / d(N2,C6) / d(N2,CA3) / d(N2,O3) / d(O4,H2): unit not given beside the values; details: for H-bond distance to MASP-2 GLY 656 atom O: GLY 656 O; for H-bond distance to MASP-2 SER 628 atom O: SER 628 O; for H-bond distance to MASP-2 SER 654 atom O: SER 654 O; for H-bond distance to MASP-2 SER 657 atom O: SER 657 O; for van der Waals contact distance GLY 656 atom C: MASP-2 GLY 656 C; for van der Waals contact distance SER 657 atom C: MASP-2 SER 657 C, columns c12-c13 (inferred);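 for Ligand-pharmacophore element distance, pharmacophore element C2: distance from averaged pharmacophore element to bound ligand; missing value means element absent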;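 for Ligand-pharmacophore element distance, pharmacophore element C3: distance from averaged pharmacophore element to bound ligand; missing value means element absent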;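 for Ligand-pharmacophore element distance, pharmacophore element C4: distance from averaged pharmacophore element to bound ligand; missing value means element absent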;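 for Ligand-pharmacophore element distance, pharmacophore element C5: distance from averaged pharmacophore element to bound ligand; missing value means element absent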
Procedure, shortened: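 Inhibitor complexes were obtained by soaking crystals of E. coli-expressed human MASP-2 CCP2-SP constructs, then flash-cooling in liquid nitrogen. Structures solved by molecular replacement (1Q3X search model) from synchrotron diffraction; where several poses existed, only one was analyzed, and nonbonded contacts listed can include H-bonds.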

[4] = Table A2-9 second part, ARG 630, AA atoms N, NE, NH1
[5] = Table A5-1 pharmacophore: distance between elements, S2/S1 region
[6] = Table A5-2 pharmacophore distance, S3/S4 region
[7] = Table A7-1, between pharmacophore elements of the bound compound
[8] = Table A8-6, nearest protein atom in cell to the left

Sequence of MASP-2 CCP2-SP (O00187 445-686): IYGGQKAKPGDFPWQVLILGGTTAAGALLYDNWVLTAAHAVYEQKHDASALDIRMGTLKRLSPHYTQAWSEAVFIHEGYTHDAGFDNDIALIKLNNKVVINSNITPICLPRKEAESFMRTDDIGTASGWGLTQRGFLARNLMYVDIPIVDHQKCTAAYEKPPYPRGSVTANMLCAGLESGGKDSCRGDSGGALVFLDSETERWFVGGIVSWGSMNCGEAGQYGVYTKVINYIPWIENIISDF
Sequence of MASP-2 CCP2-SP (O00187 364-432 partner): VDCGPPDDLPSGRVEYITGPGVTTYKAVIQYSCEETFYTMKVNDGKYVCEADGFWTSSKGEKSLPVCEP
Sequence of MASP-2 (CCP1-CCP2-SP) (O00187 445-686): as the sequence (O00187 445-686) above

C[C@H](NC(=O)[C@H](N)CCc1cccc(Cl)c1)C(=O)NCc1ccc(C(=N)N)cc1 [compound 1081]
Ki [1]: < 500 nM | Ki [2]: < 500 nM | H-bond distance to MASP-2 GLY 656 atom O ([3]; Table A1 (H-Bonds)): 2.92 | H-bond distance to MASP-2 SER 628 atom O ([3]; Table A1 (H-Bonds)): 2.86 | H-bond distance to MASP-2 SER 654 atom O ([3]; Table A1 (H-Bonds)): 2.81 | H-bond distance to MASP-2 SER 657 atom O ([3]; Table A1 (H-Bonds)): 2.69 | van der Waals contact distance, MASP-2 HIS 483 atom CD2 ([3]; Table A2-1): 3.74 | van der Waals contact distance, MASP-2 PHE 529 atom CD1 ([3]; Table A2-3): 3.38 | van der Waals contact distance, MASP-2 amino acid atom to compound atom ([3]; Table A2-7 continued: CYS 629 (CA)): 3.8 | van der Waals contact distance, MASP-2 amino acid atom to compound atom ([3]; Table A2-9, ARG 630, AA atoms CG, CZ): 3.76 | van der Waals contact distance, MASP-2 amino acid atom to compound atom [3, 4]: 3.81 | van der Waals contact distance, VAL 653 CG1 to compound atom ([3]; Table A2-11): 3.84 | van der Waals contact distance GLY 656 atom C ([3]; Table A2-13): 3.27 | van der Waals contact distance TRP 655 atom N ([3]; Table A2-13, MASP-2 TRP 655 N): 3.83 | van der Waals contact distance TRP 655 atom O ([3]; Table A2-13, MASP-2 TRP 655 O): 3.8 | van der Waals contact distance GLY 656 atom O ([3]; Table A2-14, MASP-2 GLY 656 O): 3.81 | van der Waals contact distance SER 657 atom C ([3]; Table A2-14): 3.62 | Ligand-pharmacophore element distance, pharmacophore element C2 ([3]; Table A4-1, element C2): 0 | Ligand-pharmacophore element distance, pharmacophore element C3 ([3]; Table A4-1, element C3): 0 | Ligand-pharmacophore element distance, pharmacophore element C4 ([3]; Table A4-1, element C4): 1.99 | Ligand-pharmacophore element distance, pharmacophore element C5 ([3]; Table A4-1, element C5): 0 | Ligand-pharmacophore element distance, pharmacophore element C6 ([3]; Table A4-1, element C6): 0 | Ligand-pharmacophore element distance, pharmacophore element C7 ([3]; Table A4-1, element C7): 0 | Ligand-pharmacophore element distance, pharmacophore element CA1 ([3]; Table A4-1, element CA1): 0.48 | Ligand-pharmacophore element distance, pharmacophore element CA2 ([3]; Table A4-1, element CA2): 0.76 | Ligand-pharmacophore element distance, pharmacophore element CA3 ([3]; Table A4-1, element CA3): 0 | Ligand-pharmacophore element distance, pharmacophore element CA4 ([3]; Table A4-1, element CA4): 0 | Ligand-pharmacophore element distance, pharmacophore element CA5 ([3]; Table A4-1, element CA5): 0 | Ligand-pharmacophore element distance, pharmacophore element CA6 ([3]; Table A4-1, element CA6): 0 | d(CA1,N1) [3, 5]: 3.62 | d(CA1,O1) [3, 5]: 4.57 | d(CA1,O2) [3, 5]: 4.27 | d(H4,O1) [3, 5]: 5.10 | d(H4,O2) [3, 5]: 4.46 | d(O1,O2) [3, 5]: 3.45 | d(N2,C4) [3, 6]: 7.56 | d(N2,C4)4 [3, 6]: 7.56 | d(N2,CA2) [3, 6]: 6.05 | d(O2,H3) [3, 6]: 5.78 | d(O2,N2) [3, 6]: 2.76 | a(CA1, O1, O2) ([3]; Table A6-1 pharmacophore angle): 108.25 | a(O1, O2, H4) ([3]; Table A6-1 pharmacophore angle): 138.44 | A(N1, CA1, O1) a) ([3]; Table A6-1 pharmacophore angle, all compounds with protonatable center N1 except Methyl-amino-pyridine): 163.55 | a(O1, O2, H3) ([3]; Table A6-2 pharmacophore angle): 153.00 | a(O1, O2, N2) ([3]; Table A6-2 pharmacophore angle): 139.53 | a(O2, N2, C4) ([3]; Table A6-2 pharmacophore angle): 161.57 | a(O2, N2, C4) 2 ([3]; Table A6-2 pharmacophore angle): 119.80 | a(O2, N2, CA2) ([3]; Table A6-2 pharmacophore angle): 153.98 | Pharmacophore torsion angle a(H4, O1, O2, H3) [3, 7]: 36.36 | Pharmacophore torsion angle a(H4, O1, O2, N2) [3, 7]: 121.47 | Pharmacophore torsion angle a(N1, CA1, O2, H4) [3, 7]: −125.05 | Pharmacophore torsion angle a(O1, H4, O2, CA1) [3, 7]: −62.03 | Pharmacophore torsion angle a(O1, O2, N2, CA2) ([3]; Table A7-2, between pharmacophore elements of the bound compound): 142.86 | Pharmacophore protein distance to MET_658 (first MET_658 column) ([3]; Table A8-6, 6th residue column, nearest protein atom in cell to the left): 3.11 | Pharmacophore protein distance to MET_658 (second MET_658 column) ([3]; Table A8-6, 9th residue column, nearest protein atom in cell to the left): 3.70 | Pharmacophore protein distance to GLY_528 [3, 8]: 3.22 | Pharmacophore protein distance to PHE_529 [3, 8]: 3.23 | Pharmacophore protein distance to PRO_608 [3, 8]: 4.72 | Pharmacophore protein distance to SER_611 [3, 8]: 2.66 | Pharmacophore protein distance to TRP_655 ([3]; Table A8-6, pharmacophore elements C6, CA3, O3, H1, nearest protein atom in cell to the left): 3.69

C[C@H](NC(=O)[C@H]1Cc2c([nH]c3ccccc23)CN1)C(=O)NCc1ccc(C(=N)N)cc1 [compound 1097]
Ki [1]: < 500 nM | Ki [2]: < 500 nM | H-bond distance to MASP-2 ASP 627 atom OD2 ([3]; Table A1 (H-Bonds), ASP 627 OD2): 2.74 | H-bond distance to MASP-2 GLY 656 atom N ([3]; Table A1 (H-Bonds), GLY 656 N): 3.12 | H-bond distance to MASP-2 GLY 656 atom O ([3]; Table A1 (H-Bonds)): 2.98 | H-bond distance to MASP-2 SER 628 atom O ([3]; Table A1 (H-Bonds)): 3.03 | H-bond distance to MASP-2 SER 654 atom O ([3]; Table A1 (H-Bonds)): 2.81 | H-bond distance to MASP-2 SER 657 atom O ([3]; Table A1 (H-Bonds)): 2.74 | van der Waals contact distance, MASP-2 HIS 483 atom CD2 ([3]; Table A2-1): 3.63 | van der Waals contact distance, MASP-2 HIS 483 atom NE2 ([3]; Table A2-1): 3.53 | van der Waals contact distance, MASP-2 PRO 606 atom C ([3]; Table A2-4): 3.74 | van der Waals contact distance, MASP-2 PRO 606 atom CB ([3]; Table A2-4): 3.84 | van der Waals contact distance, MASP-2 PRO 606 atom CG ([3]; Table A2-4): 3.82 | van der Waals contact distance, MASP-2 PRO 606 atom O ([3]; Table A2-4): 3.33 | van der Waals contact distance, MASP-2 TYR 607 atom CA ([3]; Table A2-4): 3.79 | van der Waals contact distance, MASP-2 amino acid atom to compound atom [3, 4]: 3.71 | van der Waals contact distance, SER 654 C to compound atom ([3]; Table A2-11): 3.73 | van der Waals contact distance GLY 656 atom C ([3]; Table A2-13): 3.46 | van der Waals contact distance SER 657 atom C ([3]; Table A2-14): 3.52
